Experimental data taken from patent US7625894B2, “Pyrrolo[2,3-d]Pyrimidines as Protein Tyrosine Kinase Inhibitors” (Novartis AG, priority 2004, dated 2009).

Assays:
[1] = biological target: T1, Bcr-Abl (Homo sapiens, UniProt P00519); experiment: Test for activity against Bcr-Abl (phosphorylation ELISA in 32D-bcr/abl cells); type: cell-based, murine; conditions: 32D cells transfected with p210 Bcr-Abl; ELISA of Bcr-Abl phosphorylation; read-out: bcrabl32DcEL/ Average<32Dp210IC50 [umol l−1]>
T1 construct: host or cells: murine myeloid progenitor cell line 32Dcl3 (32D-bcr/abl); the other entry of the earlier key: BCR (P11274, Breakpoint cluster region protein)
T1 sequence (P00519 28-1130 limits assumed): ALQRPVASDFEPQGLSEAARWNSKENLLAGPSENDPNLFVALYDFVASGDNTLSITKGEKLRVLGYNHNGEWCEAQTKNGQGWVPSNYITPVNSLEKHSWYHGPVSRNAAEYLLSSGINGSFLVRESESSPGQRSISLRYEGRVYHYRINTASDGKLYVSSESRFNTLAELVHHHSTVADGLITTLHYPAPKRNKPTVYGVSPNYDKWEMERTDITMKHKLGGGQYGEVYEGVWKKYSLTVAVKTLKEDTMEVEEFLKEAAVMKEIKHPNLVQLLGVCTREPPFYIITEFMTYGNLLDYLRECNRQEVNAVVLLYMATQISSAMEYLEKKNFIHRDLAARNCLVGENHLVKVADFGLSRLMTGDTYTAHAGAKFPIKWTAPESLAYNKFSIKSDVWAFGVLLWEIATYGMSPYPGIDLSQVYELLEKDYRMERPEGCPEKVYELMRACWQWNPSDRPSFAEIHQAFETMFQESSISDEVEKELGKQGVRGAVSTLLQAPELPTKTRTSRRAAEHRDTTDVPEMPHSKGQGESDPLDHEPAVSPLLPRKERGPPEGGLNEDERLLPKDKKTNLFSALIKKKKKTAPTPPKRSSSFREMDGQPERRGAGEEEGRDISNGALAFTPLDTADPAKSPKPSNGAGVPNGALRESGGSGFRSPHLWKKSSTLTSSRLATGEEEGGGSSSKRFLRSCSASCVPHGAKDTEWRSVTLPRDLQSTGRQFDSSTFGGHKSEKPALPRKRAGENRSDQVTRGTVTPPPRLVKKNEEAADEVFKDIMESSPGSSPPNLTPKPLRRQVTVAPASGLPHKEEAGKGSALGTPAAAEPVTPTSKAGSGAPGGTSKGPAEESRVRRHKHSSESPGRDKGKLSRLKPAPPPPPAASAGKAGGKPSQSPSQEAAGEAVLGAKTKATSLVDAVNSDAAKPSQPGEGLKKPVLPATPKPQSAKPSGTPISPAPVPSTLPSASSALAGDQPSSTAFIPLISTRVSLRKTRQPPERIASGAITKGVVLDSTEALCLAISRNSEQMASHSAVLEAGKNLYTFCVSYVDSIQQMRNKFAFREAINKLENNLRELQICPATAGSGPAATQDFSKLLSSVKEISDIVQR
Procedure: Test for activity against Bcr-Abl. The murine myeloid progenitor cell line 32Dcl3 transfected with the p210 Bcr-Abl expression vector pGDp210Bcr/Abl (32D-bcr/abl) was obtained from J. Griffin (Dana Faber Cancer Institute, Boston, Mass., USA). The cells express the fusion Bcr-Abl protein with a constitutively active Abl kinase and proliferate growth factor independent. The cells are expanded in RPMI 1640 (AMIMED), 10% fetal calf serum, 2 mM glutamine (Gibco) (“complete medium”), and a working stock is prepared by freezing aliquots of 2×10^6 cells per vial in freezing medium (95% FCS, 5% DMSO (SIGMA)). After thawing, the cells are used during maximally 10-12 passages for the experiments.
For cellular assays, compounds are dissolved in DMSO and diluted with complete medium to yield a starting concentration of 10 μM followed by preparation of serial 3-fold dilutions in complete medium. 200,000 32D-Bcr/Abl cells in 50 μL complete medium are seeded per well in 96 well round bottom tissue culture plates. 50 μL per well of serial 3-fold dilutions of the test compound are added to the cells in triplicates. Untreated cells are used as control. The compound is incubated together with the cells for 90 min at 37° C., 5% CO2, followed by centrifugation of the tissue culture plates at 1300 rpm (Beckman GPR centrifuge) and removal of the supernatants by careful aspiration taking care not to remove any of the pelleted cells. The cell pellets are lysed by addition of 150 μL lysis buffer (50 mM Tris/HCl, pH 7.4, 150 mM sodium chloride, 5 mM EDTA, 1 mM EGTA, 1% NP-40, 2 mM sodium ortho-vanadate, 1 mM PMSF, 50 μg/mL aprotinin and 80 μg/mL leupeptin) and either used immediately for the ELISA or stored frozen in the plates at −20° C. until usage.
Black ELISA plates (Packard HTRF-96 black plates) are precoated over night at 4° C. with 50 ng/well of the rabbit polyclonal anti-abl-SH3 domain Ab 06-466 from Upstate in 50 μL PBS. After washing 3 times with 200 μL/well PBS containing 0.05% Tween20 (PBST) and 0.5% TopBlock (Juro), residual protein binding sites are blocked with 200 μL/well PBST, 3% TopBlock for 4 h at room temperature followed by incubation with 50 μL lysates of untreated or compound-treated cells (20 μg total protein per well) for 3-4 h at 4° C. After 3 washings, 50 μL/well anti-phosphotyrosine Ab PY20(AP) labeled with alkaline phosphatase (Zymed) diluted to 0.2 μg/mL in blocking buffer is added and incubated over night (4° C.). For all incubation steps the plates are covered with plate sealers (Costar). Finally, the plates are washed another three times with washing buffer and once with deionized water before addition of 90 μL/well of the AP-substrate CDPStar RTU with Emerald II. The plates, now sealed with Packard TopSeal™-A plate sealers, are incubated for 45 min at room temperature in the dark and luminescence is quantified by measuring counts per second (CPS) with a Packard Top Count Microplate Scintillation Counter (Top Count). The difference between the ELISA-readout (CPS) obtained for with the lysates of the untreated 32D-Bcr/Abl cells and the readout for the assay-background (all components, but without cell lysate) is calculated and taken as 100% reflecting the constitutively phosphorylated Bcr-Abl protein present in these cells. The activity of the compound on the Bcr-Abl kinase activity is expressed as percent reduction of the Bcr-Abl phosphorylation. The values for the IC50 and IC90 are determined from the dose response curves by graphical extrapolation.

[2] = biological target: EGF-R (HER-1) (Homo sapiens, UniProt P00533); experiment: Inhibition of the tyrosine kinase activity of EGF-R (HER-1); type: biochemical; set-up: dose or concentration left out as unconfirmed
[3] = biological target: c-erbB2 tyrosine kinase (HER-2) (Homo sapiens, UniProt P04626); experiment: Inhibition of c-erbB2 tyrosine kinase (HER-2); type: biochemical; set-up: dose or concentration left out as unconfirmed
Source text: The inhibition of c-erbB2 tyrosine kinase (HER-2) can be measured, for example, in the same way as the inhibition of EGF-R protein kinase, using known procedures.

[4] = biological target: T2, VEGF receptor (KDR) (Homo sapiens, UniProt P35968); experiment: Inhibition of VEGF-induced KDR-receptor autophosphorylation in transfected CHO cells; type: cell-based
T2 construct: expressed in transfected cells
T2 sequence (P35968 20-1356): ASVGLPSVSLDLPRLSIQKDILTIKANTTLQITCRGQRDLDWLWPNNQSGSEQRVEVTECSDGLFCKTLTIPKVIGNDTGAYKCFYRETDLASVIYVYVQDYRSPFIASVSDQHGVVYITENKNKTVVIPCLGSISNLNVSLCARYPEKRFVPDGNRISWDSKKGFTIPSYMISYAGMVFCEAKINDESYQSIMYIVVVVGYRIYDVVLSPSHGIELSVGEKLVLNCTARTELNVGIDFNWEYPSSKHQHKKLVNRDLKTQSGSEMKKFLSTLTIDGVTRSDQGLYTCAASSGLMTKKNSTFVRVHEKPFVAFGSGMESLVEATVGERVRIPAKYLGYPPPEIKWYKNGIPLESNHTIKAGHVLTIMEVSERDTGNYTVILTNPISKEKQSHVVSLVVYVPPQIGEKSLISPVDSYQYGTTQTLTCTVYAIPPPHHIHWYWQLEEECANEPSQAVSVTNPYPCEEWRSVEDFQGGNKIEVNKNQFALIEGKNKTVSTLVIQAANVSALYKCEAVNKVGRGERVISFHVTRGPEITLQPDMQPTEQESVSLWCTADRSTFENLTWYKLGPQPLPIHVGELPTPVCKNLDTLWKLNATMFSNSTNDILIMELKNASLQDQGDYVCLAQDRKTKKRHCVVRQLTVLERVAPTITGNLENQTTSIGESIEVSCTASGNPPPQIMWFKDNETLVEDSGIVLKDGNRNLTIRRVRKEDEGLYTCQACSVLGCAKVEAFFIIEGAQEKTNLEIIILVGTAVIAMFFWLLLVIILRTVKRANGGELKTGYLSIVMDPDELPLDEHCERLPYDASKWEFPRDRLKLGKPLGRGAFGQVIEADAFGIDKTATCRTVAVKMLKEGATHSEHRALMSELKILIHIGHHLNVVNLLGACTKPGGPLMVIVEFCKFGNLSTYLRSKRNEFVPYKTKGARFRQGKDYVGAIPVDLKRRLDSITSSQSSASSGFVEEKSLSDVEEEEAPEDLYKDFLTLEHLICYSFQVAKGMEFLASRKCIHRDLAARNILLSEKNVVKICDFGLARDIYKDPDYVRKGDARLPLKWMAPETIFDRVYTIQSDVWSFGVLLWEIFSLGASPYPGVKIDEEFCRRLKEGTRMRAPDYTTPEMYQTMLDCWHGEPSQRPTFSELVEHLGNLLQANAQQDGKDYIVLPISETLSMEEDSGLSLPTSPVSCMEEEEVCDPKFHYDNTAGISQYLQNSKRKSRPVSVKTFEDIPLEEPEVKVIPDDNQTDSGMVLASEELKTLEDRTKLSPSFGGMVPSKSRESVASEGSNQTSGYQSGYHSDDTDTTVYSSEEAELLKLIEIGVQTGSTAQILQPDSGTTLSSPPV
Procedure: The inhibition of VEGF-induced KDR-receptor autophosphorylation can be confirmed with a further in vitro experiment in cells: transfected CHO cells, which permanently express human VEGF receptor (KDR), are seeded in complete culture medium with 10% fetal calf serum (FCS) in 6-well cell-culture plates and incubated at 37° C. under 5% CO2 until they show about 80% confluency. The compounds to be tested are then diluted in culture medium (without FCS, with 0.1% bovine serum albumin) and added to the cells. (Controls comprise medium without test compounds). After two hours of incubation at 37° C., recombinant VEGF is added; the final VEGF concentration is 20 ng/mL). After a further five minute incubation at 37° C., the cells are washed twice with ice-cold PBS (phosphate-buffered saline) and immediately lysed in 100 μL lysis buffer per well. The lysates are then centrifuged to remove the cell nuclei, and the protein concentrations of the supernatants are determined using a commercial protein assay (BIORAD). The lysates can then either be immediately used or, if necessary, stored at −20° C.
A sandwich ELISA is carried out to measure the KDR-receptor phosphorylation: a monoclonal antibody to KDR (for example Mab 1495.12.14) is immobilized on black ELISA plates (OptiPlate™ HTRF-96 from Packard). The plates are then washed and the remaining free protein-binding sites are saturated with 1% BSA in PBS. The cell lysates (20 μg protein per well) are then incubated in these plates overnight at 4° C. together with an anti-phosphotyrosine antibody coupled with alkaline phosphatase (PY20: AP from Transduction Laboratories). […] The luminescence is measured in a Packard Top Count Microplate Scintillation Counter (Top Count). The difference between the signal of the positive control (stimulated with VEGF) and that of the negative control (not stimulated with VEGF) corresponds to VEGF-induced KDR-receptor phosphorylation (=100%). The activity of the tested substances is calculated as % inhibition of VEGF-induced KDR-receptor phosphorylation, wherein the concentration of substance that induces half the maximum inhibition is defined as the IC50 (effective dose for 50% inhibition).

| Compound | IC50 [1] [nM] | HER-1/ %-inh. [%] [2] [%] | HER-2/%-inh. [%] [3] [%] | KDR (% inh) [4] [%] | melting point [°C] |
| --- | --- | --- | --- | --- | --- |
| CN1CCN(C(=O)c2ccc(-c3cc4c(N(C)C)ncnc4[nH]3)cc2)CC1 [Example 3, [4-(4-Dimethylamino-7H-pyrrolo[2,3-d]pyrimidin-6-yl)-phenyl]-(4-methyl-piperazin-1-yl)-methanone] | 797 | 59 | 78 | 85 | 275 to 277 |
| CN1CCN(Cc2ccc(-c3cc4c(N(C)C)ncnc4[nH]3)cc2)CC1 [Example 4, Dimethyl-{6-[4-(4-methyl-piperazin-1-ylmethyl)-phenyl]-7H-pyrrolo[2,3-d]pyrimidin-4-yl}-amine] | 729 | 64 | 87 | 86 | 252 to 254 |
| CCN(CC)CCCNC(=O)c1ccc(-c2cc3c(N(C)C)ncnc3[nH]2)cc1 [Example 5, N-(3-Diethylamino-propyl)-4-(4-dimethylamino-7H-pyrrolo[2,3-d]pyrimidin-6-yl)-benzamide] |  | 58 | 78 | 79 |  |
| CN(C)c1ncnc2[nH]c(-c3ccc(C(=O)N4CCOCC4)cc3)cc12 [Example 6, [4-(4-Dimethylamino-7H-pyrrolo[2,3-d]pyrimidin-6-yl)-phenyl]-morpholin-4-yl-methanone] | 935 | 70 | 80 | 83 | 316 to 318 |
| CN(C)c1ncnc2[nH]c(-c3ccc(C(=O)NCCCN4CCOCC4)cc3)cc12 [Example 7, 4-(4-Dimethylamino-7H-pyrrolo[2,3-d]pyrimidin-6-yl)-N-(3-morpholin-4-yl-propyl)-benzamide] | 917 | 59 | 71 | 79 | 260 to 262 |
| CNc1ncnc2[nH]c(-c3ccc(C(=O)N4CCN(C)CC4)cc3)cc12 [Example 12, [4-(4-Methylamino-7H-pyrrolo[2,3-d]pyrimidin-6-yl)-phenyl]-(4-methyl-piperazin-1-yl)-methanone] |  | 85 | 85 | 67 | 315 |
| CN1CCN(C(=O)c2ccc(-c3cc4c(NCCCO)ncnc4[nH]3)cc2)CC1 [Example 15, {4-[4-(3-Hydroxy-propylamino)-7H-pyrrolo[2,3-d]pyrimidin-6-yl]-phenyl}-(4-methyl-piperazin-1-yl)-methanone] |  | 94 | 88 | 80 | 302 to 305 |
| CNc1ncnc2[nH]c(-c3ccc(CN4CCN(C)CC4)cc3)cc12 [Example 16, Methyl-{6-[4-(4-methyl-piperazin-1-ylmethyl)-phenyl]-7H-pyrrolo[2,3-d]pyrimidin-4-yl}-amine] | 50.8 | 94 | 93 | 85 |  |
| CCCNc1ncnc2[nH]c(-c3ccc(C(=O)N4CCN(C)CC4)cc3)cc12 [Example 17, (4-Methyl-piperazin-1-yl)-[4-(4-propylamino-7H-pyrrolo[2,3-d]pyrimidin-6-yl)-phenyl]-methanone] | 1630 | 95 | 87 | 81 | 302 to 305 |
| CCCNc1ncnc2[nH]c(-c3ccc(CN4CCN(C)CC4)cc3)cc12 [Example 18, {6-[4-(4-Methyl-piperazin-1-ylmethyl)-phenyl]-7H-pyrrolo[2,3-d]pyrimidin-4-yl}-propyl-amine] | 939 | 98 | 94 | 83 | 232 to 234 |
| CCCN(C)c1ncnc2[nH]c(-c3ccc(CN4CCN(C)CC4)cc3)cc12 [Example 19, Methyl-{6-[4-(4-methyl-piperazin-1-ylmethyl)-phenyl]-7H-pyrrolo[2,3-d]pyrimidin-4-yl}-propyl-amine] | 2070 | 97 | 89 | 85 |  |
| CN(C)c1ncnc2[nH]c(-c3ccc(Cn4ccnc4)cc3)cc12 [Example 24, [6-(4-Imidazol-1-ylmethyl-phenyl)-7H-pyrrolo[2,3-d]pyrimidin-4-yl]-dimethylamine] | 790 | 93 | 93 | 75 |  |
| CNc1ncnc2[nH]c(-c3ccc(C(C)(C)O)cc3)cc12 [Example 35, 2-[4-(4-Methylamino-7H-pyrrolo[2,3-d]pyrimidin-6-yl)-phenyl]-propan-2-ol] |  | 90 |  | 76 | 280 to 283 |
| [4-(4-Methylamino-7H-pyrrolo[2,3-d]pyrimidin-6-yl)-phenyl]-morpholin-4-yl-methanone [Example 2] | 292 | 78 | 65 | 77 |  |
